Experimental data as given in patent publication US20250120932A1, “PHARMACEUTICAL COMPOSITION” (NEUROPRO THERAPEUTICS, INC., priority 2021, published 2025).
Values joined by “and” are separate entries in the source; they are usually repeats but may differ in a detail not shown here. Identical values can stand only once.

Experiment: Pharmacokinetic study in cynomolgus monkeys after oral (nasogastric) gavage, sublingual and intravenous administration
Assay type: in vivo
Conditions: monkey
Description: A pharmacokinetic study was done in cynomolgus monkeys following single oral (nasogastric) gavage, sublingual, and intravenous administration. […] Calibration curves, blanks, and analytical QCs were prepared in monkey plasma (K2EDTA). The extracts were evaporated to dryness, reconstituted, and then analyzed by LC-MS/MS. The calibration range was 0.250-250 ng/mL for both analytes.
If the criteria for either the calibration curve or the analytical QCs were not met, the analytical run was rejected. […] No deviations were found during the bioanalytical phase of the study conducted by Origin. Calibration curves were derived from the individual analyte to internal standard peak area ratios using the least squared regression of the ratio versus the nominal concentration of the calibration standard, prepared in duplicate. The regression was then used to back-calculate the concentration of each calibration standard, QC sample and study sample. […] Analyst® Software Version 1.6.3 (Applied Biosystems-MDS Sciex), operated with Windows® (Microsoft), was used for instrument control, data acquisition, and peak integrations. Peak area ratios, standard curve regressions, and sample concentration/accuracy values were calculated with Analyst® Software Version 1.6.3. Other results (e.g., mean statistics) were calculated with Excel® (Microsoft).
There was no apparent sex difference for the second formulation. […] A fourth formulation comprising the composition B listed in Table 54 was also administered in monheys.

## CCCCNc1cc(C(=O)N(Cc2ccccc2)Cc2ccccc2)cc(S(N)(=O)=O)c1Oc1ccccc1 [Bumetanide Dibenzylamide, N, N-dibenzyl 3-aminosulfonyl-5-butylamino-4-phenoxybenzamide]
Cynomolgus monkey, plasma, other: sublingual, 5 mg/kg, Plasma Bumetanide Dibenzylamide concentration, Median, SL, dose column 5 mg/kg (title 30 mg/kg), Fourth Formulation (Form 2), 2.0 h, N=4
  concentration at 2 h: 0 ng/mL
Cynomolgus monkey, plasma, other: sublingual, 5 mg/kg, Plasma Bumetanide Dibenzylamide concentration, Median, SL, dose column 5 mg/kg (title 30 mg/kg), Fourth Formulation (Form 2), 4.0 h, N=4
  concentration at 4 h: 0 ng/mL
Cynomolgus monkey, plasma, other: sublingual, 5 mg/kg, Plasma Bumetanide Dibenzylamide concentration, Median, SL, dose column 5 mg/kg (title 30 mg/kg), Fourth Formulation (Form 2), 8.0 h, N=4
  concentration at 8 h: 0.505 ng/mL
Cynomolgus monkey, plasma, other: sublingual, 5 mg/kg, Plasma Bumetanide Dibenzylamide concentration, Median, SL, dose column 5 mg/kg (title 30 mg/kg), Fourth Formulation (Form 2), 24.0 h, N=4
  concentration at 24 h: 0.182 ng/mL
Cynomolgus monkey, plasma, other: sublingual, 5 mg/kg, Plasma Bumetanide Dibenzylamide concentration, Median, SL, dose column 5 mg/kg (title 30 mg/kg), Fourth Formulation (Form 2), 32.0 h, N=4
  concentration at 32 h: 0 ng/mL
Cynomolgus monkey, plasma, other: sublingual, 5 mg/kg, Plasma Bumetanide Dibenzylamide concentration, SL, dose column 5 mg/kg (title 30 mg/kg), Fourth Formulation (Form 2), 0.00 h, individual animals
  concentration at 0 h: 0 ng/mL
Cynomolgus monkey, plasma, other: sublingual, 5 mg/kg, Plasma Bumetanide Dibenzylamide concentration, SL, dose column 5 mg/kg (title 30 mg/kg), Fourth Formulation (Form 2), 0.25 h, individual animals
  concentration at 0.25 h: 0 ng/mL
Cynomolgus monkey, plasma, other: sublingual, 5 mg/kg, Plasma Bumetanide Dibenzylamide concentration, SL, dose column 5 mg/kg (title 30 mg/kg), Fourth Formulation (Form 2), 0.50 h, individual animals
  concentration at 0.5 h: 0 ng/mL
Cynomolgus monkey, plasma, other: sublingual, 5 mg/kg, Plasma Bumetanide Dibenzylamide concentration, SL, dose column 5 mg/kg (title 30 mg/kg), Fourth Formulation (Form 2), 1.0 h, individual animals
  concentration at 1 h: 0 ng/mL
cynomolgus, cynomolgus monkey, plasma, intravenous, 2 mg/kg, Plasma Bumetanide Dibenzylamide concentration, Median, dose column 2 mg/kg (title 30 mg/kg), Third Formulation (Form 4), 0.08 h, N=4
  concentration at 0.08 h: 1370 ng/mL
cynomolgus, cynomolgus monkey, plasma, intravenous, 2 mg/kg, Plasma Bumetanide Dibenzylamide concentration, Median, dose column 2 mg/kg (title 30 mg/kg), Third Formulation (Form 4), 0.50 h, N=4
  concentration at 0.5 h: 672 ng/mL
cynomolgus, cynomolgus monkey, plasma, intravenous, 2 mg/kg, Plasma Bumetanide Dibenzylamide concentration, Median, dose column 2 mg/kg (title 30 mg/kg), Third Formulation (Form 4), 1.00 h, N=4
  concentration at 1 h: 504 ng/mL
cynomolgus, cynomolgus monkey, plasma, intravenous, 2 mg/kg, Plasma Bumetanide Dibenzylamide concentration, Median, dose column 2 mg/kg (title 30 mg/kg), Third Formulation (Form 4), 2.00 h, N=4
  concentration at 2 h: 297 ng/mL
cynomolgus, cynomolgus monkey, plasma, intravenous, 2 mg/kg, Plasma Bumetanide Dibenzylamide concentration, Median, dose column 2 mg/kg (title 30 mg/kg), Third Formulation (Form 4), 4.00 h, N=4
  concentration at 4 h: 109 ng/mL
cynomolgus, cynomolgus monkey, plasma, intravenous, 2 mg/kg, Plasma Bumetanide Dibenzylamide concentration, Median, dose column 2 mg/kg (title 30 mg/kg), Third Formulation (Form 4), 8.00 h, N=4
  concentration at 8 h: 27.2 ng/mL
cynomolgus, cynomolgus monkey, plasma, intravenous, 2 mg/kg, Plasma Bumetanide Dibenzylamide concentration, Median, dose column 2 mg/kg (title 30 mg/kg), Third Formulation (Form 4), 24.00 h, N=4
  concentration at 24 h: 2.62 ng/mL
cynomolgus, cynomolgus monkey, plasma, intravenous, 2 mg/kg, Plasma Bumetanide Dibenzylamide concentration, Median, dose column 2 mg/kg (title 30 mg/kg), Third Formulation (Form 4), 32.00 h, N=4
  concentration at 32 h: 0.917 ng/mL
IV, dose column 2 mg/kg (title 30 mg/kg), Third Formulation (Form 4), 0.08 h, individual animals
  Plasma Bumetanide Dibenzylamide concentration: 1430 ng/mL and 1160 ng/mL and 1310 ng/mL
IV, dose column 2 mg/kg (title 30 mg/kg), Third Formulation (Form 4), 0.50 h, individual animals
  Plasma Bumetanide Dibenzylamide concentration: 757 ng/mL and 555 ng/mL and 626 ng/mL
IV, dose column 2 mg/kg (title 30 mg/kg), Third Formulation (Form 4), 1.00 h, individual animals
  Plasma Bumetanide Dibenzylamide concentration: 536 ng/mL and 472 ng/mL and 385 ng/mL
IV, dose column 2 mg/kg (title 30 mg/kg), Third Formulation (Form 4), 2.00 h, individual animals
  Plasma Bumetanide Dibenzylamide concentration: 316 ng/mL and 278 ng/mL and 214 ng/mL
IV, dose column 2 mg/kg (title 30 mg/kg), Third Formulation (Form 4), 4.00 h, individual animals
  Plasma Bumetanide Dibenzylamide concentration: 87.8 ng/mL and 129 ng/mL and 89.3 ng/mL
IV, dose column 2 mg/kg (title 30 mg/kg), Third Formulation (Form 4), 8.00 h, individual animals
  Plasma Bumetanide Dibenzylamide concentration: 51.4 ng/mL and 26.6 ng/mL and 27.7 ng/mL and 17.2 ng/mL
IV, dose column 2 mg/kg (title 30 mg/kg), Third Formulation (Form 4), 24.00 h, individual animals
  Plasma Bumetanide Dibenzylamide concentration: 3.95 ng/mL and 0.942 ng/mL and 8.10 ng/mL and 1.28 ng/mL
IV, dose column 2 mg/kg (title 30 mg/kg), Third Formulation (Form 4), 32.00 h, individual animals
  Plasma Bumetanide Dibenzylamide concentration: 1.47 ng/mL and 0.303 ng/mL and 3.80 ng/mL and 0.363 ng/mL
NG 30 mg/kg, First Formulation (Form 1), 0.00 h, individual animals, female monkeys
  Plasma Bumetanide Dibenzylamide concentration: 0.00 ng/mL
NG 30 mg/kg, First Formulation (Form 1), 0.00 h, individual animals, male monkeys
  Plasma Bumetanide Dibenzylamide concentration: 0.00 ng/mL
NG 30 mg/kg, First Formulation (Form 1), 0.25 h, individual animals, female monkeys
  Plasma Bumetanide Dibenzylamide concentration: 0.992 ng/mL and 0.398 ng/mL
NG 30 mg/kg, First Formulation (Form 1), 0.25 h, individual animals, male monkeys
  Plasma Bumetanide Dibenzylamide concentration: 0.932 ng/mL and 14.9 ng/mL
NG 30 mg/kg, First Formulation (Form 1), 0.50 h, individual animals, female monkeys
  Plasma Bumetanide Dibenzylamide concentration: 1.66 ng/mL and 1.18 ng/mL
NG 30 mg/kg, First Formulation (Form 1), 0.50 h, individual animals, male monkeys
  Plasma Bumetanide Dibenzylamide concentration: 3.97 ng/mL and 16.8 ng/mL
NG 30 mg/kg, First Formulation (Form 1), 1.00 h, individual animals, female monkeys
  Plasma Bumetanide Dibenzylamide concentration: 8.08 ng/mL and 3.01 ng/mL
NG 30 mg/kg, First Formulation (Form 1), 1.00 h, individual animals, male monkeys
  Plasma Bumetanide Dibenzylamide concentration: 12.1 ng/mL and 29.7 ng/mL
NG 30 mg/kg, First Formulation (Form 1), 2.00 h, individual animals, female monkeys
  Plasma Bumetanide Dibenzylamide concentration: 11.1 ng/mL and 8.35 ng/mL
NG 30 mg/kg, First Formulation (Form 1), 2.00 h, individual animals, male monkeys
  Plasma Bumetanide Dibenzylamide concentration: 157 ng/mL and 74.0 ng/mL
NG 30 mg/kg, First Formulation (Form 1), 4.00 h, individual animals, female monkeys
  Plasma Bumetanide Dibenzylamide concentration: 9.83 ng/mL and 23.8 ng/mL
NG 30 mg/kg, First Formulation (Form 1), 4.00 h, individual animals, male monkeys
  Plasma Bumetanide Dibenzylamide concentration: 182 ng/mL and 51.4 ng/mL
NG 30 mg/kg, First Formulation (Form 1), 8.00 h, individual animals, female monkeys
  Plasma Bumetanide Dibenzylamide concentration: 17.5 ng/mL and 17.0 ng/mL
NG 30 mg/kg, First Formulation (Form 1), 8.00 h, individual animals, male monkeys
  Plasma Bumetanide Dibenzylamide concentration: 99.9 ng/mL and 45.1 ng/mL
NG 30 mg/kg, First Formulation (Form 1), 24.00 h, individual animals, female monkeys
  Plasma Bumetanide Dibenzylamide concentration: 3.28 ng/mL and 2.02 ng/mL
NG 30 mg/kg, First Formulation (Form 1), 24.00 h, individual animals, male monkeys
  Plasma Bumetanide Dibenzylamide concentration: 21.6 ng/mL and 7.47 ng/mL
NG 30 mg/kg, First Formulation (Form 1), 32.00 h, individual animals, female monkeys
  Plasma Bumetanide Dibenzylamide concentration: 0.790 ng/mL and 1.37 ng/mL
NG 30 mg/kg, First Formulation (Form 1), 32.00 h, individual animals, male monkeys
  Plasma Bumetanide Dibenzylamide concentration: 9.75 ng/mL and 6.13 ng/mL
NG 30 mg/kg, Second Formulation (Form 3), 0.00 h, individual animals, female monkeys
  Plasma Bumetanide Dibenzylamide concentration: 0.00 ng/mL
NG 30 mg/kg, Second Formulation (Form 3), 0.00 h, individual animals, male monkeys
  Plasma Bumetanide Dibenzylamide concentration: 0.00 ng/mL
NG 30 mg/kg, Second Formulation (Form 3), 0.25 h, individual animals, female monkeys
  Plasma Bumetanide Dibenzylamide concentration: 0.619 ng/mL and 0.261 ng/mL
NG 30 mg/kg, Second Formulation (Form 3), 0.25 h, individual animals, male monkeys
  Plasma Bumetanide Dibenzylamide concentration: 0.250 ng/mL and 0.00 ng/mL
NG 30 mg/kg, Second Formulation (Form 3), 0.50 h, individual animals, female monkeys
  Plasma Bumetanide Dibenzylamide concentration: 4.98 ng/mL and 1.71 ng/mL
NG 30 mg/kg, Second Formulation (Form 3), 0.50 h, individual animals, male monkeys
  Plasma Bumetanide Dibenzylamide concentration: 1.55 ng/mL and 3.16 ng/mL
NG 30 mg/kg, Second Formulation (Form 3), 1.00 h, individual animals, female monkeys
  Plasma Bumetanide Dibenzylamide concentration: 20.2 ng/mL and 7.09 ng/mL
NG 30 mg/kg, Second Formulation (Form 3), 1.00 h, individual animals, male monkeys
  Plasma Bumetanide Dibenzylamide concentration: 7.56 ng/mL and 11.3 ng/mL
NG 30 mg/kg, Second Formulation (Form 3), 2.00 h, individual animals, female monkeys
  Plasma Bumetanide Dibenzylamide concentration: 79.3 ng/mL and 37.8 ng/mL
NG 30 mg/kg, Second Formulation (Form 3), 2.00 h, individual animals, male monkeys
  Plasma Bumetanide Dibenzylamide concentration: 16.8 ng/mL and 82.5 ng/mL
NG 30 mg/kg, Second Formulation (Form 3), 4.00 h, individual animals, female monkeys
  Plasma Bumetanide Dibenzylamide concentration: 140 ng/mL and 247 ng/mL
NG 30 mg/kg, Second Formulation (Form 3), 4.00 h, individual animals, male monkeys
  Plasma Bumetanide Dibenzylamide concentration: 126 ng/mL and 410 ng/mL
NG 30 mg/kg, Second Formulation (Form 3), 8.00 h, individual animals, female monkeys
  Plasma Bumetanide Dibenzylamide concentration: 457 ng/mL and 674 ng/mL
NG 30 mg/kg, Second Formulation (Form 3), 8.00 h, individual animals, male monkeys
  Plasma Bumetanide Dibenzylamide concentration: 785 ng/mL
NG 30 mg/kg, Second Formulation (Form 3), 24.00 h, individual animals, female monkeys
  Plasma Bumetanide Dibenzylamide concentration: 9.30 ng/mL and 10.7 ng/mL
NG 30 mg/kg, Second Formulation (Form 3), 24.00 h, individual animals, male monkeys
  Plasma Bumetanide Dibenzylamide concentration: 26.4 ng/mL and 8.13 ng/mL
NG 30 mg/kg, Second Formulation (Form 3), 32.00 h, individual animals, female monkeys
  Plasma Bumetanide Dibenzylamide concentration: 1.63 ng/mL and 1.62 ng/mL
NG 30 mg/kg, Second Formulation (Form 3), 32.00 h, individual animals, male monkeys
  Plasma Bumetanide Dibenzylamide concentration: 6.41 ng/mL and 2.08 ng/mL
SL, dose column 5 mg/kg (title 30 mg/kg), Fourth Formulation (Form 2), 4.0 h, individual animals
  Plasma Bumetanide Dibenzylamide concentration: 0.00 ng/mL
SL, dose column 5 mg/kg (title 30 mg/kg), Fourth Formulation (Form 2), 8.0 h, individual animals
  Plasma Bumetanide Dibenzylamide concentration: 0.380 ng/mL
SL, dose column 5 mg/kg (title 30 mg/kg), Fourth Formulation (Form 2), 24.0 h, individual animals
  Plasma Bumetanide Dibenzylamide concentration: 0.363 ng/mL
SL, dose column 5 mg/kg (title 30 mg/kg), Fourth Formulation (Form 2), 32.0 h, individual animals
  Plasma Bumetanide Dibenzylamide concentration: 0.00 ng/mL
